Literature values, collected in patent publication US20130281394A1, “Chemosensory Receptor Ligand-Based Therapies” (ELCELYX THERAPEUTICS, INC., priority 2010, published 2013).
Marks after values point to notes of the source that are not given here.

tested on: gut hormones; settings: humans

Row | Compound | alterations of gut hormones in the circulation
1 | C=C1C[C@@]23CC[C@H]4[C@@](C)(CCC[C@@]4(C)C(=O)O[C@@H]4O[C@H](CO)[C@@H](O)[C@H](O)[C@H]4O)[C@@H]2CC[C@]1(O[C@@H]1O[C@H](CO)[C@@H](O)[C@H](O[C@@H]2O[C@H](CO)[C@@H](O)[C@H](O)[C@H]2O)[C@H]1O[C@@H]1O[C@H](CO)[C@@H](O)[C@H](O)[C@H]1O)C3 [Rebaudioside A] | no alterations

tested on: GLP-1; settings: rats, with a DPP-IV inhibitor

Row | Compound | increase in GLP-1
2 | OCCN1C[C@H](O)[C@@H](O)[C@H](O)[C@H]1CO [miglitol] | synergistic

tested on: GLP-1; settings: humans

Row | Compound | post-prandial GLP-1 levels
3 | OCCN1C[C@H](O)[C@@H](O)[C@H](O)[C@H]1CO [miglitol] | increase

tested on: not given; settings: patients with jejunostomy

Row | Compound | gastric emptying of solids and liquids | intestinal absorption of energy and intestinal wet weight absorption
4 | GLP-2: gut hormone administered to patients with jejunostomy (HADGSFSDEMNTILDNLAARDFINWLIQTKITD; Glucagon-like peptide 2; UniProt P01275 146-178, looked up) | prolong | improve

tested on: not given; settings: rats

Row | Compound | abdominal fat | weight gain
5 | N[C@@H](CCC(=O)O)C(=O)O [glutamate] | reduced | decreased

tested on: gut hormone release; settings: instillation into the duodenum of humans

Row | Compound | gut hormone release
6 | OC[C@H]1O[C@H](O[C@]2(CCl)O[C@H](CCl)[C@@H](O)[C@@H]2O)[C@H](O)[C@@H](O)[C@H]1Cl [sucralose] | no effect

tested on: bitter receptor; settings: not given

Row | Compound | Taste quality
7 | C=CCC(=NOS(=O)(=O)O)S[C@@H]1O[C@H](CO)[C@@H](O)[C@H](O)[C@H]1O (stereo in doubt) [Sinigrin] | Bitter
8 | C[C@@H]1O[C@@H](O[C@H]2[C@H](Oc3cc(O)c4c(c3)O[C@H](c3ccc(O)cc3)CC4=O)O[C@H](CO)[C@@H](O)[C@@H]2O)[C@H](O)[C@H](O)[C@H]1O [Naringin] | Bitter
9 | CC1(C)O[C@H]2CC(=O)OC[C@]23[C@H]2CC[C@@](C)([C@@H](O[C@@H]4O[C@H](CO)[C@@H](O)[C@H](O)[C@H]4O)c4ccoc4)[C@@]4(O[C@@H]4C(=O)O)[C@]2(C)C(=O)C[C@@H]13 [Limonin glucoside] | Tasteless
10 | O=c1c(-c2ccc(O)cc2)coc2cc(O[C@@H]3O[C@H](CO)[C@@H](O)[C@H](O)[C@H]3O)ccc12 [Daidzin] | Astringent
11 | C=CC1CNC(=S)O1 (stereo not shown) [Goitrin 5-vinyl-2-oxazolidine thione, 5-vinyl-2-oxazolidine thione] | Bitter
12 | CC1(C)O[C@H]2CC(=O)OC[C@]23[C@H]2CC[C@@]4(C)[C@H](c5ccoc5)OC(=O)[C@H]5O[C@]54[C@]2(C)C(=O)C[C@@H]13 [Limonin] | Bitter
13 | CC(=O)O[C@H]1CC(=O)OC(C)(C)[C@@H]2CC(=O)[C@]3(C)[C@H](CC[C@@]4(C)[C@H](c5ccoc5)OC(=O)[C@H]5O[C@]543)[C@@]12C [Nomilin] | Bitter
14 | O=S(=O)(O)ON=C(Cc1c[nH]c2ccccc12)S[C@@H]1O[C@H](CO)[C@@H](O)[C@H](O)[C@H]1O [Glucobrassicin] | Bitter
15 | C[S+]([O-])CCCCN=C=S (stereo not shown) [4-Methylsulfinyl butyl isothiocyanate] | Acrid mustard oils
16 | COc1ccc(-c2cc(=O)c3c(OC)c(OC)c(OC)c(OC)c3o2)cc1 [Tangeretin] | Bitter
17 | O=c1c(-c2ccc(O)cc2)coc2cc(O)ccc12 [daidzein] | Bitter or astringent
18 | O=c1c(-c2ccc(O)cc2)coc2cc(O[C@@H]3O[C@H](CO)[C@@H](O)[C@H](O)[C@H]3O)cc(O)c12 [Genistin] | Astringent
19 | Oc1cc(O)c2c(c1)O[C@H](c1cc(O)c(O)c(O)c1)[C@H](O)C2 [Epigallocatechin] | Bitter with sweet
20 | O=C(O[C@@H]1Cc2c(O)cc(O)cc2O[C@@H]1c1cc(O)c(O)c(O)c1)c1cc(O)c(O)c(O)c1 [Epigallocatechin gallate] | Bitter with sweet
21 | S=C=NCc1ccccc1 [Benzyl isothiocyanate] | Acrid mustard oils;
22 | COc1ccc(-c2cc(=O)c3c(OC)c(OC)c(OC)cc3o2)cc1OC [Sinensetin] | Bitter
23 | O=C(O[C@@H]1Cc2c(O)cc(O)cc2O[C@@H]1c1ccc(O)c(O)c1)c1cc(O)c(O)c(O)c1 [Epicatechin gallate] | Bitter and astringent
24 | C=C[C@H](O)CC(=NOS(=O)(=O)O)S[C@@H]1O[C@H](CO)[C@@H](O)[C@H](O)[C@H]1O [Progoitrin] | Bitter
25 | COc1ccc(-c2cc(=O)c3c(OC)c(OC)c(OC)c(OC)c3o2)cc1OC [Nobiletin] | Bitter
26 | O=c1c(O)c(-c2ccc(O)c(O)c2)oc2cc(O)cc(O)c12 [Quercetin] | Bitter
27 | C[S+]([O-])CCCN=C=S (stereo not shown) [3-Methyl-sulfinylpropyl isothiocyanate] | Acrid mustard oils
28 | O=c1c(-c2ccc(O)cc2)coc2cc(O)cc(O)c12 [Genistein] | Bitter or astringent
29 | C=CCN=C=S [Allyl-isothiocyanate] | Acrid mustard oils;

tested on: gut hormone release; settings: rats

Row | Compound | gut hormone release
30 | OC[C@H]1O[C@H](O[C@]2(CCl)O[C@H](CCl)[C@@H](O)[C@@H]2O)[C@H](O)[C@@H](O)[C@H]1Cl [sucralose] | no effect

target: T1, sweet receptor (Homo sapiens, UniProt Q7RTX0+Q8TE23); settings: relative sweetness on a weight comparison basis to sucrose (= 1.0); ranges: varied with the concentration of sucrose
T1 sequence (Q8TE23 20-839): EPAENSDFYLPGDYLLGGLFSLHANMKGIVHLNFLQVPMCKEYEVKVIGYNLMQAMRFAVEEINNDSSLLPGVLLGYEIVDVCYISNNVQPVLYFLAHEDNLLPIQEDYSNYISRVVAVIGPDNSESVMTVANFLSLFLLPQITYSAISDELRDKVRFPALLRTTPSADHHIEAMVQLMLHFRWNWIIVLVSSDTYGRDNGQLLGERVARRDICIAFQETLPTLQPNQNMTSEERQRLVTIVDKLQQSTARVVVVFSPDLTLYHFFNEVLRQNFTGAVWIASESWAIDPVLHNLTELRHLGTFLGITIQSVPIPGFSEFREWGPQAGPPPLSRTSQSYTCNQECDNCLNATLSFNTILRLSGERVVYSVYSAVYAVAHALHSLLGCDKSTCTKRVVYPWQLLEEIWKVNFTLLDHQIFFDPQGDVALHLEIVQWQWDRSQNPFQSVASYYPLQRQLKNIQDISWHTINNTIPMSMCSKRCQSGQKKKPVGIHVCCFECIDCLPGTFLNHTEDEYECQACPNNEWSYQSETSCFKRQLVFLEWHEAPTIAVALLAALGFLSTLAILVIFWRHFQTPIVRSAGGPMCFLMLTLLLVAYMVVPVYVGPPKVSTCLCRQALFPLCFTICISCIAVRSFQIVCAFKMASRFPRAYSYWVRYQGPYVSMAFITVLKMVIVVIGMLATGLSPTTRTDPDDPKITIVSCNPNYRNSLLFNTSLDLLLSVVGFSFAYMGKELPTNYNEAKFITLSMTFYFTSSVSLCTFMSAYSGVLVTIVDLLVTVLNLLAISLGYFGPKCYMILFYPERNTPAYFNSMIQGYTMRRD
T1 sequence (Q7RTX0 21-852): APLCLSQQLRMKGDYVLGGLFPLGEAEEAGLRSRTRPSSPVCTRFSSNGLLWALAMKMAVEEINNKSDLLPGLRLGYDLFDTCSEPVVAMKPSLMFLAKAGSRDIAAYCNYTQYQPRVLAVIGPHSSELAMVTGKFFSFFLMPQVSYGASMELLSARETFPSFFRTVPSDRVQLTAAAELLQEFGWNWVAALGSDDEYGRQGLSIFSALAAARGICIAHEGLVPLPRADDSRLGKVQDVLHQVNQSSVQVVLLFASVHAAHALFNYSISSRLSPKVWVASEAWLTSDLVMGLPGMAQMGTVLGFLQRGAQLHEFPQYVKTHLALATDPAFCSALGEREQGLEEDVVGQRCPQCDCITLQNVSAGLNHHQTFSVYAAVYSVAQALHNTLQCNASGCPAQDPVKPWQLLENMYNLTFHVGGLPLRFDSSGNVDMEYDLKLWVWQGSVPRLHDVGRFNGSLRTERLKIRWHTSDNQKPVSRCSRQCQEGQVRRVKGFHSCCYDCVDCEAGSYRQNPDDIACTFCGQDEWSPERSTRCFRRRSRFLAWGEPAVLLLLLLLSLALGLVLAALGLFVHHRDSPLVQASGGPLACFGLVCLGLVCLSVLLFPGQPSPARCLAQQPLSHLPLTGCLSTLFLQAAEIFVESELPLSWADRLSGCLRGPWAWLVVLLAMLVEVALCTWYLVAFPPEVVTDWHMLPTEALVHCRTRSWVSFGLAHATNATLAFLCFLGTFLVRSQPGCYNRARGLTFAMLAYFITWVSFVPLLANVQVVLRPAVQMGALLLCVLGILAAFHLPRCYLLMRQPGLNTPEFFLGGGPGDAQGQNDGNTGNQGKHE

Row | Compound | Sweetness/potency
31 | C=C1C[C@@]23CC[C@H]4[C@@](C)(CCC[C@@]4(C)C(=O)O[C@@H]4O[C@H](CO)[C@@H](O)[C@H](O)[C@H]4O)[C@@H]2CC[C@]1(O[C@@H]1O[C@H](CO)[C@@H](O)[C@H](O[C@@H]2O[C@H](CO)[C@@H](O)[C@H](O)[C@H]2O)[C@H]1O[C@@H]1O[C@H](CO)[C@@H](O)[C@H](O)[C@H]1O)C3 [Rebaudioside A] | 242
32 | CC1(C(=O)O)C=C2C3CCC4C5(CO)CCC(OC6OC(C(=O)O)C(O)C(O)C6OC6OC(C(=O)O)C(O)C(O)C6O)C(C)(C)C5CCC4(C)C3(C)CCC2(C)CC1 (stereo not shown) [Periandrin III] | 92
33 | Brazzein (QDKCKKVYENYPVSKCQLANQCNYDCKLDKHARSGECFYDEKRNLQCICDYCEY; UniProt P56552 1-54, looked up) [sweet protein from Pentadiplandra brazzeana Baillon] | 2,000
34 | Rebaudioside C | 30
35 | 4β,11α-Dimethyl-1,2,3,4,5,10-hexahydro-fluorene-4α,6α-dicarboxylic acid | 1,300-1,800^d
36 | COc1c(O)cc2c(c1O)C(=O)[C@H](OC(C)=O)[C@@H](c1ccc(O)c(O)c1)O2 [(2R,3R)-2,3-Dihydro-5,7,3′,4′-tetrahydroxy-6-methoxy-3-O-acetylflavonol] | 25
37 | C/C(=C\CC[C@@H](C)[C@H]1CC[C@@]2(C)[C@@H]3CC=C4[C@@H](CC[C@H](O[C@@H]5O[C@H](CO)[C@@H](O)[C@H](O)[C@H]5O)C4(C)C)[C@]3(C)[C@H](O)C[C@]12C)CO[C@@H]1O[C@H](CO[C@@H]2O[C@H](CO)[C@@H](O)[C@H](O)[C@H]2O)[C@@H](O)[C@H](O)[C@H]1O [Carnosifloside VI] | 77

tested on: not given; settings: in vivo

Row | Compound | portal:arterial gradient
38 | glucagon-like peptide-1 [GLP-1] | > 2:1
